Experimental data: patent publication US4965280A, “Antifungal carbinols” (E. I. Du Pont de Nemours and Company, priority 1989, dated 1990)
In brackets after ≈: the same amount, converted by molar mass. Where two headings read alike, the source gives them in different places.

What was measured:
[1] = system: Fusarium oxysporum f. sp. cucumerinum; experiment: Example L cucumber wilt; type: in vivo; conditions: 336 h, 5 kg/ha, read-out: disease control rating, Ex. L
Method: […] Seeds and soil were then inoculated with a mixture of sand, cereal and mycelium of the fungus Fusarium oxysporum f. sp. cucumerinum, causal agent of cucumber wilt, and incubated in a growth chamber at 30° C. for 14 days. Disease ratings were then made.

Puccinia recondita = experiment: Example G wheat leaf rust; type: in vivo; conditions: 100 PPM, read-out: disease control rating, Ex. G
Rhizoctonia solani [2] = experiment: Example K cotton blight; type: in vivo; conditions: 336 h, 5 kg/ha, read-out: disease control rating, Ex. K
Method: […] Seeds and soil were then inoculated with a mixture of sand, cereal and mycelium of the fungus Rhizoctonia solani, causal agent of cotton blight, and incubated in a growth chamber at 30° C. for 14 days. Disease ratings were then made.

[3] = system: Erysiphe graminis f. sp. tritici; experiment: Example D wheat powdery mildew; type: in vivo; conditions: Blumeria graminis, 144 h; 100 PPM; read-out: disease control rating, Ex. D
How it was run: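 Spray to run-off on wheat seedlings; test suspension 100 or 20 ppm compound, acetone 6% v/v, 250 ppm polyhydric alcohol ester surfactant in water.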

Botrytis cinerea = experiment: Example C bean grey mold; type: in vivo; conditions: 100 PPM; for pest or weed control at 100 ppm: Botrytis cinerea, 24 h, read-out: disease control rating, Ex. C
How it was run: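 Broad bean seedlings; foliar spray to run-off. Cmpd 100 or 20 ppm in water + 250 ppm TREM 014, acetone 6% v/v final.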

Pythium aphanadermatum = experiment: Example J cucumber damping off; type: in vivo; conditions: Pythium, 336 h; 5 kg/ha; read-out: disease control rating, Ex. J
How it was run: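 This cucumber damping-off test used soil and seeds infested with a sand–cereal preparation carrying mycelium of Pythium aphanadermatum. Incubation took place in a growth chamber held at 30° C. for 14 days. Afterwards, the extent of disease was scored as a disease control rating.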

[4] = system: Cercosporidium personatum; experiment: Example B Peanut Late Leafspot; type: in vivo; conditions: Nothopassalora personata; 100 PPM; read-out: disease control rating, Ex. B
How it was run: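 Foliar spray on peanut seedlings, to run-off; test rates 100 or 20 ppm. Formulation: acetone at 6% of final volume, water with 250 ppm polyhydric alcohol ester surfactant.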

[5] = system: Candida albicans ATCC 11651; experiment: In vitro antifungal MIC, microtiter broth dilution; conditions: for MIC: Candida albicans, ATCC11651, 24 h, read-out: MIC values, C. albicans, 30°, 24 hours
Phytophthora infestans = experiment: whole plant or invertebrate; type: in vivo; conditions: for pest or weed control at 100 ppm: Phytophthora infestans, in Solanum lycopersicum, read-out: disease control rating, Ex. H, 100 PPM
Plasmorpara viticola = experiment: Example I grape downy mildew; type: in vivo; conditions: read-out: disease control rating, Ex. I
How it was run: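 Grape seedlings sprayed to run-off; test suspension 100 or 20 ppm compound, acetone 6% v/v final, 250 ppm TREM 014 in purified water.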

[6] = system: Candida albicans ATCC 11651; experiment: In vivo systemic Candida infection in mice, primary assay; parameters: species or system Candida albicans; CF-1 female mice; conditions: for responders at 150 mg/kg: Candida albicans, read-out: % Survival
How it was run: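 CF-1 female mice (20 g, 10 per group) were infected IV with 0.2 ml of 1×10^7/ml C. albicans ATCC 11651, then given test compound subcutaneously at 50 or 150 mg/kg/day at 1 and 6 h post-infection and once daily for three more days. Survival was followed for 21 days against infected untreated mice; ≥70% protection at 14 days was scored active.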

Sclerotium rolfsii = experiment: Example M southern blight; type: in vivo; conditions: Agroathelia rolfsii, 336 h; 5 kg/ha; read-out: disease control rating, Ex. M
Method: […] Seeds and soil were then inoculated with a mixture of sand, cereal and mycelium of the fungus Sclerotium rolfsii, causal agent of sourthern blight, and incubated in a growth chamber at 30° C. for 14 days. Disease ratings were then made.

Venturia inaequalis = experiment: Example A apple scab; type: in vivo; conditions: 100 PPM, read-out: disease control rating, Ex. A
How it was run: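 Acetone solution (6% of final vol.) → suspension at 100 or 20 ppm in water + 250 ppm TREM 014 surfactant; sprayed to run-off on apple seedlings.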

[7] = system: Aspergillus fumigatus ATCC 28214; experiment: In vitro antifungal MIC, microtiter broth dilution; conditions: for MIC: Aspergillus fumigatus, ATCC28214, 24 h, read-out: MIC values, A. fumigatus, 30°, 24 hours
Pyricularia oryzae = experiment: whole plant or invertebrate; type: in vivo; conditions: for pest or weed control at 100 ppm: Pyricularia oryzae, 120 h, read-out: disease control rating, Ex. E, 100 PPM
Rhizoctonia solani [8] = experiment: Example F rice sheath blight; type: in vivo; conditions: 100 PPM; for pest or weed control at 100 ppm: Rhizoctonia solani, 144 h, read-out: disease control rating, Ex. F
How it was run: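 Spray to run-off on rice seedlings; test suspension 100 or 20 ppm compound in water + 250 ppm TREM 014 surfactant, acetone 6% final volume.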

[9] = ATCC11651, 168 h, 150 mg/kg per day, day 7
[10] = ATCC11651, 336 h, 150 mg/kg per day, day 14
[11] = ATCC11651, 504 h, 150 mg/kg per day, day 21

Compound | pest or weed control at 5000 g/ha [1] | pest or weed control at 100 ppm (Puccinia recondita) | pest or weed control at 5000 g/ha (Rhizoctonia solani [2]) | pest or weed control at 100 ppm [3] | pest or weed control at 100 ppm (Botrytis cinerea) | pest or weed control at 5000 g/ha (Pythium aphanadermatum) | pest or weed control at 100 ppm [4] | MIC [5] | pest or weed control at 100 ppm (Phytophthora infestans) | pest or weed control at 100 ppm (Plasmorpara viticola) | responders at 150 mg/kg [6, 9] | responders at 150 mg/kg [6, 10] | responders at 150 mg/kg [6, 11] | pest or weed control at 5000 g/ha (Sclerotium rolfsii) | pest or weed control at 100 ppm (Venturia inaequalis) | MIC [7] | pest or weed control at 100 ppm (Pyricularia oryzae) | pest or weed control at 100 ppm (Rhizoctonia solani [8]) | also measured
C=C(c1ccccc1)C(O)(Cn1cncn1)c1ccccc1F (stereo not drawn) [Example 594] | 100% | 100% | 60% | 77% | 93% | 0% | 100% | 0.8 µg/mL (≈ 2.59 µM) | 0% | 79% | 70% | 10% | 0% | 50% | 86% | 0.8 µg/mL (≈ 2.59 µM) | 2% | – | –
C=C(c1ccc(F)cc1)C(O)(Cn1cncn1)c1ccc(F)cc1 (single isomer, unassigned) [Example 1277] | 0% | 39% | 0% | 0% | – | 0% | 65% | – | – | 25% | 100% | – | – | 0% | 9% | – | – | – | disease control rating, Ex. C (Botrytis cinerea): 0%; MIC values, C. albicans ([5]; 30°, 24 hours): 0.03 µg/mL (≈ 0.0916 µM); disease control rating, Ex. H (Phytophthora infestans; 100 PPM): 0%; % Survival ([6]; 150 mg/kg per day, day 14): 100%; % Survival ([6]; 150 mg/kg per day, day 21): 90%; disease control rating, Ex. F (Rhizoctonia solani [8]): 0%; MIC values, A. fumigatus ([7]; 30°, 24 hours): 6.3 µg/mL (≈ 19.2 µM); disease control rating, Ex. E (Pyricularia oryzae; 100 PPM): 0%
C=C(c1ccc(F)cc1)C(Cn1cncn1)(OC)c1ccc(F)cc1 (stereo not drawn) [Example 359] | 0% | 100% | 0% | 95% | 83% | 0% | 100% | 0.4 µg/mL (≈ 1.17 µM) | 0% | 0% | 100% | 80% | 80% | 0% | 72% | 50 µg/mL (≈ 146 µM) | 88% | 62% | –
C=C(c1cccc(Cl)c1)C(O)(Cn1cncn1)c1ccc(F)cc1 (stereo not drawn) [Example 39] | 0% | 100% | 0% | 98% | 96% | 0% | 97% | 0.4 µg/mL (≈ 1.16 µM) | 0% | 81% | 100% | 80% | – | 0% | 89% | 25 µg/mL (≈ 72.7 µM) | 7% | 100% | –
C=C(c1ccccc1F)C(O)(Cn1cncn1)c1ccc(F)cc1 (stereo not drawn) [Example 10] | 0% | 64% | 0% | 63% | 52% | 0% | 76% | 1.6 µg/mL (≈ 4.89 µM) | 0% | 0% | 20% | 10% | 0% | 0% | 0% | 25 µg/mL (≈ 76.4 µM) | 0% | 17% | –
C=C(c1ccc(F)cc1)C(O)(Cn1ncnc1S)c1ccccc1F (stereo not drawn) [Example 1300] | 0% | 100% | 0% | 92% | 93% | 0% | 100% | ≤ 0.4 µg/mL | 0% | 0% | – | – | – | 0% | 100% | 6.3 µg/mL (≈ 17.5 µM) | 58% | 81% | –
C=C(c1ccc(F)cc1)C(Cn1cncn1)(OC(=O)NC)c1ccc(F)cc1 (stereo not drawn) [Example 363] | 0% | 38% | 0% | 28% | 92% | 0% | 49% | 100 µg/mL (≈ 260 µM) | 0% | 0% | – | – | – | 0% | 0% | 100 µg/mL (≈ 260 µM) | 0% | 0% | responders at 150 mg/kg ([6]; ATCC11651, 168 h): 10%; responders at 150 mg/kg ([6]; ATCC11651, 336 h): 0%; responders at 150 mg/kg ([6]; ATCC11651, 504 h): 0%
C=C(c1ccccc1)C(O)(Cn1cncn1)c1cc(Cl)cc(Cl)c1 (stereo not drawn) [Example 603] | 0% | 95% | 0% | 69% | 91% | 0% | 97% | 0.1 µg/mL (≈ 0.278 µM) | 0% | 0% | 10% | 0% | 0% | 0% | 44% | > 100 µg/mL | 0% | – | –
C=C(c1ccccc1)C(O)(Cn1ncnc1SCCCC)c1ccc(F)cc1 (stereo not drawn) [Example 1459] | 0% | 65% | 0% | 31% | 65% | 0% | 70% | > 100 µg/mL | 0% | 74% | – | – | – | 0% | 72% | > 100 µg/mL | 17% | 0% | –
